Experimental data published in US20100298141A1, “SUBSTITUTED PYRIDINE N-OXIDE HERBICIDES” (E. I. DU PONT DE NEMOURS AND COMPANY, priority 2007, published 2010).

Columns and labels:
umbrella sedge = assay: Test C flooded paddy test; format: in vivo, Cyperus difformis; conditions: Flood
Outline: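 In-water treatment: compound dosed into 3 cm flood over soil, water level unchanged throughout. Controls run alongside; visual assessment at day 13–15.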

pigweed = assay: Test C pre-/postemergence test; format: in vivo, Amaranthus retroflexus
Source text: (§1) Seeds of plant species selected from blackgrass (Alopecurus myosuroides), downy brome (Bromus tectorum), green foxtail (Setaria viridis), Italian ryegrass (Lolium multiflorum), wheat (Triticum aestivum), wild oat (Avena fatua), catchweed bedstraw (Galium aparine), Russian thistle (Salsola kali), […] (Cynodon dactylon), Surinam grass (Brachiaria decumbens), cocklebur (Xanthium strumarium), corn (Zea mays), crabgrass (Digitaria sanguinalis), woolly cupgrass (Eriochloa villosa), giant foxtail (Setaria faberii), Goosegrass (Eleusin indica), johnsongrass (Sorghum halepense), kochia (Kochia scoparia), lambsquarters (Chenopodium album), morningglory (Ipomoea coccinea), eastern black nightshade (Solanum ptycanthum), yellow nutsedge (Cyperus esculentus), pigweed (Amaranthus retroflexus), common ragweed (Ambrosia elation), soybean (Glycine max), common (oilseed) sunflower (Helianthus annuus), and velvetleaf (Abutilon theophrasti) were planted and treated preemergence with test chemicals formulated in a non-phytotoxic solvent mixture which included a surfactant. At the same time, plants selected from these crop and weed species and also winter barley (Hordeum vulgare), canarygrass (Phalaris minor), and chickweed (Stellaria media) were treated with postemergence applications of some of the test chemicals formulated in the same manner. Plants ranged in height from 2 to 18 cm (1- to 4-leaf stage) for postemergence treatments. […] At time of treatment, test pots were flooded to 3 cm above the soil surface, treated by application of test compounds directly to the paddy water, and then maintained at that water depth for the duration of the test. […] A dash (-) response means no test result.

Surinam grass = assay: Test C pre-/postemergence test; format: in vivo, Brachiaria decumbens
Source text: as §1

morningglory = assay: Test C pre-/postemergence test; format: in vivo, Ipomoea coccinea
Source text: as §1

velvetleaf = assay: Test C pre-/postemergence test; format: in vivo, Abutilon theophrasti
Source text: as §1

corn [1] = assay: Test C pre-/postemergence test; format: in vivo, Zea mays
Source text: as §1

corn [2] = assay: Test A pre-/postemergence greenhouse test; format: in vivo, Zea mays; conditions: for Plant response rating, Corn: 0 to 100 scale where 0 is no effect and 100 is complete control; for Corn plant response rating: 0 to 100 scale
Outline: (§2)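 Herbicidal effect is a visual injury score given about ten days post-treatment by comparison with untreated controls. Preemergence plots received a directed spray onto sown loam–sand soil; postemergence plants, at the one- to two-leaf stage and 2–10 cm tall, were sprayed at the same time.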

Italian ryegrass = assay: Test C pre-/postemergence test; format: in vivo, Lolium multiflorum
Source text: as §1

Goosegrass = assay: Test C pre-/postemergence test; format: in vivo, Eleusin indica
Source text: as §1

wheat = assay: Test A pre-/postemergence greenhouse test; format: in vivo, Triticum aestivum; conditions: for Plant response rating, Wheat: 0 to 100 scale where 0 is no effect and 100 is complete control; for Wheat plant response rating: 0 to 100 scale
Outline: as §2

giant foxtail = assay: Test C pre-/postemergence test; format: in vivo, Setaria faberii; conditions: for Foxtail, Giant plant response rating: preemergence, scale 0 (no effect) to 100 (complete control)
Source text: as §1

johnsongrass = assay: Test C pre-/postemergence test; format: in vivo, Sorghum halepense
Source text: as §1

[3] = tested on: common (oilseed) sunflower; assay: Test C pre-/postemergence test; format: in vivo, Helianthus annuus
Source text: as §1

barnyardgrass = assay: Test A pre-/postemergence greenhouse test; format: in vivo, Echinochloa crus-galli; conditions: for Plant response rating, Barnyardgrass: 0 to 100 scale where 0 is no effect and 100 is complete control; for Barnyardgrass plant response rating: 0 to 100 scale
Outline: as §2

crabgrass [4] = assay: Test C pre-/postemergence test; format: in vivo, Digitaria sanguinalis
Source text: as §1

crabgrass [5] = assay: Test A pre-/postemergence greenhouse test; format: in vivo, Digitaria sanguinalis; conditions: for Plant response rating, Crabgrass, Large: 0 to 100 scale where 0 is no effect and 100 is complete control; for Crabgrass, Large plant response rating: 0 to 100 scale
Outline: as §2

[6] = 62 g ai/ha, Preemergence, scale 0 to 100
[7] = Postemergence, 125 g ai/ha, scale 0 to 100, 0 no effect, 100 complete control
[8] = Postemergence, 250 g ai/ha, scale 0 to 100, 0 no effect, 100 complete control
[9] = Preemergence, 31 g ai/ha, scale 0 to 100 (0 no effect, 100 complete control)
[10] = preemergence, 250 g ai/ha, scale 0 (no effect) to 100 (complete control)
[11] = 125 g ai/ha, preemergence, scale 0 (no effect) to 100 (complete control)
[12] = Postemergence, 62 g ai/ha, scale 0 to 100, 0 no effect, 100 complete control
[13] = Postemergence, 500 g ai/ha, 0 is no effect, 100 is complete control
[14] = Preemergence, 125 g ai/ha, 0 no effect, 100 complete control

CCn1nc(C(F)(F)F)c(C[S+]([O-])c2cccc[n+]2[O-])c1OCC(F)(F)F (racemic) [Compound 65]
Plant response rating, Sedge, Umbrella (umbrella sedge; 62 g ai/ha, scale 0 to 100 (0 no effect, 100 complete control)): 60 | Plant response rating, Sedge, Umbrella (umbrella sedge; 250 g ai/ha, scale 0 to 100, 0 no effect, 100 complete control, 13 to 15 days): 100 | Pigweed plant response rating (pigweed; [6]): 85 | Plant response rating (0 to 100), Pigweed (pigweed; Postemergence, 31 g ai/ha): 0 | Plant response rating (0 to 100), Pigweed (pigweed; Postemergence, 62 g ai/ha): 0 | Plant response rating, Pigweed (pigweed; [7]): 0 | Plant response rating, Pigweed (pigweed; [8]): 5 | Plant response rating, Pigweed (pigweed; [9]): 85 | Pigweed plant response rating (pigweed; [10]): 100 | Surinam Grass plant response rating (Surinam grass; [6]): 100 | Surinam Grass plant response rating (Surinam grass; [11]): 100 | Plant response rating (0 to 100), Surinam Grass (Surinam grass; Postemergence, 31 g ai/ha): 0 | Plant response rating (0 to 100), Surinam Grass (Surinam grass; Postemergence, 62 g ai/ha): 0 | Plant response rating, Surinam Grass (Surinam grass; [7]): 0 | Plant response rating, Surinam Grass (Surinam grass; [8]): 25 | Plant response rating, Surinam Grass (Surinam grass; [9]): 80 | Surinam Grass plant response rating (Surinam grass; [10]): 100 | Morningglory plant response rating (morningglory; [6]): 0 | Plant response rating (0 to 100), Morningglory (morningglory; Postemergence, 31 g ai/ha): 0 | Plant response rating, Morningglory (morningglory; [12]): 0 | Plant response rating, Morningglory (morningglory; [7]): 0 | Plant response rating, Morningglory (morningglory; [8]): 0 | Plant response rating, Morningglory (morningglory; [9]): 0 | Morningglory plant response rating (morningglory; [10]): 75 | Velvetleaf plant response rating (velvetleaf; [6]): 60 | Velvetleaf plant response rating (velvetleaf; [11]): 100 | Plant response rating (0 to 100), Velvetleaf (velvetleaf; Postemergence, 31 g ai/ha): 0 | Plant response rating (0 to 100), Velvetleaf (velvetleaf; Postemergence, 62 g ai/ha): 0 | Plant response rating, Velvetleaf (velvetleaf; [7]): 30 | Plant response rating, Velvetleaf (velvetleaf; [8]): 40 | Plant response rating, Velvetleaf (velvetleaf; [9]): 55 | Velvetleaf plant response rating (velvetleaf; [10]): 100 | Corn plant response rating (corn [1]; [6]): 100 | Corn plant response rating (corn [1]; [11]): 100 | Plant response rating (0 to 100), Corn (corn [1]; Postemergence, 31 g ai/ha): 0 | Plant response rating, Corn (corn [1]; [12]): 0 | Plant response rating, Corn (corn [1]; [7]): 50 | Plant response rating, Corn (corn [1]; [9]): 70 | Corn plant response rating (corn [1]; [10]): 100 | Plant response rating, Corn (corn [2]; Postemergence, 125 g ai/ha): 70 | Corn plant response rating (corn [2]; [13]): 80 | Corn plant response rating (corn [2]; [14]): 40 | Plant response rating, Corn (corn [2]; Preemergence, 500 g ai/ha): 80 | Ryegrass, Italian plant response rating (Italian ryegrass; [6]): 100 | Ryegrass, Italian plant response rating (Italian ryegrass; [11]): 100 | Plant response rating (0 to 100), Ryegrass, Italian (Italian ryegrass; Postemergence, 31 g ai/ha): 0 | Plant response rating (0 to 100), Ryegrass, Italian (Italian ryegrass; Postemergence, 62 g ai/ha): 0 | Plant response rating, Ryegrass, Italian (Italian ryegrass; [7]): 90 | Plant response rating, Ryegrass, Italian (Italian ryegrass; [8]): 95 | Plant response rating, Ryegrass, Italian (Italian ryegrass; [9]): 50 | Ryegrass, Italian plant response rating (Italian ryegrass; [10]): 100 | Goosegrass plant response rating (Goosegrass; [6]): 100 | Goosegrass plant response rating (Goosegrass; [11]): 100 | Plant response rating (0 to 100), Goosegrass (Goosegrass; Postemergence, 31 g ai/ha): 0 | Plant response rating, Goosegrass (Goosegrass; [12]): 0 | Plant response rating, Goosegrass (Goosegrass; [7]): 0 | Plant response rating, Goosegrass (Goosegrass; [8]): 70 | Plant response rating, Goosegrass (Goosegrass; [9]): 100 | Goosegrass plant response rating (Goosegrass; [10]): 100 | Plant response rating, Wheat (wheat; Postemergence, 125 g ai/ha): 60 | Wheat plant response rating (wheat; [13]): 70 | Wheat plant response rating (wheat; [14]): 80 | Plant response rating, Wheat (wheat; Preemergence, 500 g ai/ha): 100 | Foxtail, Giant plant response rating (giant foxtail; 125 g ai/ha): 100 | Plant response rating (0 to 100), Foxtail, Giant (giant foxtail; Postemergence, 31 g ai/ha): 0 | Plant response rating, Foxtail, Giant (giant foxtail; [12]): 0 | Plant response rating, Foxtail, Giant (giant foxtail; [7]): 40 | Plant response rating, Foxtail, Giant (giant foxtail; [8]): 80 | Plant response rating, Foxtail, Giant (giant foxtail; [9]): 98 | Foxtail, Giant plant response rating (giant foxtail; 250 g ai/ha): 100 | Johnsongrass plant response rating (johnsongrass; [6]): 100 | Johnsongrass plant response rating (johnsongrass; [11]): 100 | Plant response rating (0 to 100), Johnsongrass (johnsongrass; Postemergence, 31 g ai/ha): 0 | Plant response rating, Johnsongrass (johnsongrass; [12]): 0 | Plant response rating, Johnsongrass (johnsongrass; [7]): 0 | Plant response rating, Johnsongrass (johnsongrass; [8]): 0 | Plant response rating, Johnsongrass (johnsongrass; [9]): 98 | Johnsongrass plant response rating (johnsongrass; [10]): 100 | Sunflower plant response rating [3, 6]: 50 | Sunflower plant response rating [3, 11]: 100 | Plant response rating, Sunflower [3, 9]: 45 | Plant response rating, Barnyardgrass (barnyardgrass; Postemergence, 125 g ai/ha): 90 | Barnyardgrass plant response rating (barnyardgrass; [13]): 90 | Barnyardgrass plant response rating (barnyardgrass; [14]): 80 | Plant response rating, Barnyardgrass (barnyardgrass; Preemergence, 500 g ai/ha): 100 | Crabgrass, Large plant response rating (crabgrass [4]; [6]): 100 | Crabgrass, Large plant response rating (crabgrass [4]; [11]): 100 | Plant response rating (0 to 100), Crabgrass, Large (crabgrass [4]; Postemergence, 31 g ai/ha): 0 | Plant response rating, Crabgrass, Large (crabgrass [4]; [12]): 0 | Plant response rating, Crabgrass, Large (crabgrass [4]; [7]): 0 | Plant response rating, Crabgrass, Large (crabgrass [4]; [8]): 60 | Plant response rating, Crabgrass, Large (crabgrass [4]; [9]): 60 | Crabgrass, Large plant response rating (crabgrass [4]; [10]): 100 | Plant response rating, Crabgrass, Large (crabgrass [5]; Postemergence, 125 g ai/ha): 80 | Crabgrass, Large plant response rating (crabgrass [5]; [13]): 90 | Crabgrass, Large plant response rating (crabgrass [5]; [14]): 90 | Plant response rating, Crabgrass, Large (crabgrass [5]; Preemergence, 500 g ai/ha): 100
